Two molecules from publication PMC9007462 (Journal of Medicinal Chemistry, 2022) can be followed below.

Type in all cases: biochemical
Assay [1] has as its target T1, Human ALDH1A1 (Homo sapiens, UniProt P00352).
T1 construct: made in house
T1 sequence (P00352 1-501): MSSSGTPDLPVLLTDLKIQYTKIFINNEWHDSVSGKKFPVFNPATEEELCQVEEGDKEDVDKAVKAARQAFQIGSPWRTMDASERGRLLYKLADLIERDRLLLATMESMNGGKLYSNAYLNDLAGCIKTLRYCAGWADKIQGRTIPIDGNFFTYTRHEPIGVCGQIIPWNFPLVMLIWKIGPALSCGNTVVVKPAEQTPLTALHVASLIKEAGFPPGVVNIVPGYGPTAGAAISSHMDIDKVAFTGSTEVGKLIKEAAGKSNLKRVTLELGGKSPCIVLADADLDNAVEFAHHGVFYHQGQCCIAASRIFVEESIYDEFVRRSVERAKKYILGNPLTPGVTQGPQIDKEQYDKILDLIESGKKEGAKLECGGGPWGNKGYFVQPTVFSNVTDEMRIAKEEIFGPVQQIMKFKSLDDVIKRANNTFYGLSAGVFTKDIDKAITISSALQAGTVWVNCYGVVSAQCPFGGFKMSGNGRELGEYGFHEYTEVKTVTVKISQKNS
The assay is described as follows: ALDH1A1 inhibition, IC50 determination. The procedure: (§1) Human ALDH1A1, ALDH1A3, and ALDH3A1 were cloned and recombinantly expressed from the pET-30 Xa/LIC vector. Protein purification was achieved by affinity chromatography on a nickel-charged chelating Sepharose Fast Flow 5-mL column (His Trap column, Cytiva), which specifically binds the protein due to its N-terminal (His)6 tag, using an ÄKTA FPLC system (Cytiva), as previously described.[55] Enzymes including the His tag were stored at −80 °C in 20 mM Tris/HCl and 0.5 M NaCl, pH 8.0, until use. Reaction buffers were as follows: ALDH1A1 was assayed in 50 mM HEPES, 0.5 mM EDTA, and 0.5 mM DTT, pH 8.0; ALDH1A3 was assayed in 50 mM HEPES, 30 mM MgCl2, and 5 mM DTT, pH 8.0; and ALDH3A1 was assayed in 50 mM Tris–HCl and 5 mM DTT, pH 8.0. Activity under standard conditions was measured fluorimetrically at 25 °C using a Cary Eclipse (Varian) fluorimeter to follow the purification procedure and to check the enzyme concentration before each kinetic experiment. The fluorescence of NADH was characterized at 460 nm with excitation at 340 nm, and 5 μM NAD(P)H was added as an internal standard to obtain the absolute reaction rates.[55] Standard activity was measured at saturating concentrations of substrate using 30 μM hexanal (ALDH1A1), 250 μM hexanal (ALDH1A3), or 250 μM 4-NBA (ALDH3A1). NAD^+ was 500 μM for ALDH1A1 and ALDH1A3, and NADP^+ was 1 mM for ALDH3A1.
In order to determine the IC50 values, reaction rates were determined at various concentrations of inhibitor at a fixed concentration of substrate. As substrates for ALDH1A1, ALDH1A3, and ALDH3A1, 5 μM hexanal, 6 μM hexanal, and 31 μM 4-NBA, respectively, were used. The IC50 values were calculated by nonlinear fitting of the obtained data to a sigmoidal plot using GraFit 5.0 (Erithacus software), with the following 4-parameter equation [drawing 2] , where y is the specific activity, x is the inhibitor concentration, background is the minimum y value, range is the fitted uninhibited value minus the background, and s is the slope factor. Values are expressed as the mean ± SE.

The target in assay [2] is T1, Human ALDH1A1. Kind of assay: Inhibition screening, single point at 10 μM, ALDH1A1. Conditions: 10 μM compound; 5 μM hexanal (Figure S1). The procedure:
as §1
All compounds tested were dissolved in DMSO and assayed at a final concentration of 1% (v/v) DMSO. […] For the initial screening, the enzymatic activity was measured in 96-well plates (final volume of 200 μL) in a Victor 3 Multilabel Plate Reader (Perkin Elmer), by monitoring the fluorescence of the NAD(P)H produced during the reaction (excitation at 340 nm and emission at 460 nm). Alternatively, the enzymatic activity was measured in a Varian Cary 400 UV–vis spectrophotometer, by monitoring the increase in the absorbance of NAD(P)H at 340 nm (ε = 6.22 mM^–1·cm^–1) or in a Cary Eclipse Varian fluorimeter, as described above. […] For ALDH1A1, 5 μM hexanal (Sigma) was used. For ALDH1A3, 10 and 250 μM hexanal (Sigma) were used. For ALDH3A1, 4-NBA (Sigma) was used at 31 and 250 μM. All substrates were prepared in the corresponding assay buffer at a concentration of 2 mM and further diluted to reach the final concentrations required per experiment. The concentration of the enzyme was kept from 50- to 100-fold lower than that of the substrate for all enzymatic assays.

In assay [3] the target is T1, Human ALDH1A1. The assay is described as follows: DEAB analogues as substrates of ALDH1A1. Conditions: 10 μM compound as substrate, relative to activity with 10 μM hexanal (Figure S2). Here is the method: as §1
According to their structure with a carbonyl group, compounds were tested for their substrate properties against ALDH1A1, ALDH1A3, and ALDH3A1. […] Results are expressed as the percentage of activity at 10 μM versus the activity at 10 μM of their standard substrate (hexanal or 4-NBA). Values are expressed as the mean ± SE.

As a reminder, the IC50 is the point on the concentration scale where inhibition reaches its midpoint. Turning to `CCCN(CCC)c1ccc(C=O)cc1Br` [Compound 14, 3-Bromo-4-(dipropylamino)benzaldehyde], the IC50 on Human ALDH1A1 [1] (5 μM hexanal as substrate, mean ± SE) worked out at 7.08 ± 0.7 µM. Also, the “fold less effective than DEAB in inhibiting ALDH1A1” value at Human ALDH1A1 [1] (ratio of IC50 values vs DEAB) is listed as “approximately 15 fold”. The “remaining ALDH1A1 activity” value at Human ALDH1A1 [2] came to 45%.
As to `CCCN(CCC)c1ccc(C=O)cc1[N+](=O)[O-]` [Compound 18, 4-(Dipropylamino)-3-Nitrobenzaldehyde], on Human ALDH1A1 [3], the ALDH1A1 substrate activity came to 17%.
